Data on 25 compounds can be found in patent US6583180B2, “Glucocorticoid receptor modulators” (Abbott Laboratories, priority 2001, dated 2003).

The target of the experiment is T1, Human glucocorticoid receptors (Homo sapiens, UniProt P04150).
T1 construct: made in house; host or cells: Sf9 insect cells, recombinant baculovirus (BAC-TO-BAC)
T1 sequence (P04150 1-777): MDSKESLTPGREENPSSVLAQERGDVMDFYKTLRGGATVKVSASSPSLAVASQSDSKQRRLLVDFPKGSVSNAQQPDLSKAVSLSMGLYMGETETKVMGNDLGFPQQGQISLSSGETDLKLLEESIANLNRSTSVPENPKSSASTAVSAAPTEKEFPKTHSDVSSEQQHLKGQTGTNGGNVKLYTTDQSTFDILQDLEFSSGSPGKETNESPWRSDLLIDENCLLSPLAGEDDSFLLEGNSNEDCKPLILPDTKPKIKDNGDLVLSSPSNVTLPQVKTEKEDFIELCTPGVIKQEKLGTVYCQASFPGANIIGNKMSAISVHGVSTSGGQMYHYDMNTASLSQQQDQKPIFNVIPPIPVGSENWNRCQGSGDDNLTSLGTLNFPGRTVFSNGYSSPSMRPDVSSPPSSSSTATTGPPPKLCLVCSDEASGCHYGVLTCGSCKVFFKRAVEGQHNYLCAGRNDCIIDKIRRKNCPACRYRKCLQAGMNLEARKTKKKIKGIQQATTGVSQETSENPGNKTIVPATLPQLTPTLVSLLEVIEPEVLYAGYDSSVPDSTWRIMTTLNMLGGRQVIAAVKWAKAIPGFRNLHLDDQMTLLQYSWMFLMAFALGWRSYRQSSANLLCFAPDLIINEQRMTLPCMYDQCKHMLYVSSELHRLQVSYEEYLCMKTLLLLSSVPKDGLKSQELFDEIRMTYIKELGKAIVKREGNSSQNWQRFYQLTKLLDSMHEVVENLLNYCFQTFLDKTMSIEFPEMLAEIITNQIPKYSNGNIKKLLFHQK
As to the kind of experiment: Radioligand filter binding assay, displacement of 3[H]-dexamethasone from hGR. To be noted: read-out: GR Binding (% Inhibition at 1.7 μM). Put shortly: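 Recombinant hGR extract from baculovirus-infected Sf9 cells (final ~1 nM receptor) incubated with ³H-dexamethasone and test compound dilutions in duplicate, EDTA/phosphate pH 8 buffer with MTG, overnight (15-20 h) at +4° C. Bound label collected on PEI-treated GF/B filters and scintillation-counted; IC50 from four-parameter fit of corrected cpm.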

`CC[C@H](C)[C@H](NC(=O)CCCCOc1ccc(Oc2ccc(CN(Cc3ccccc3)c3cccc(NS(C)(=O)=O)c3C)cc2)cc1)C(=O)O` [Example 270, N-[5-(4-{4-[(benzyl{2-methyl-3-[(methylsulfonyl)amino]phenyl}amino)methyl]phenoxy}phenoxy)pentanoyl]-L-isoleucine]: the inhibition at 1.7 µM worked out at 91.1%. Under `Cc1c(NS(C)(=O)=O)cccc1N(Cc1ccccc1)Cc1ccc(Oc2ccc(OCC(=O)NCCCC(=O)O)cc2)cc1` [Example 271, 4-{[(4-{4-[(benzyl{2-methyl-3-[(methylsulfonyl)amino]phenyl}amino)methyl]phenoxy}phenoxy)acetyl]amino}butanoic acid] stands 91%.

Take `Cc1c(NS(C)(=O)=O)cccc1N(Cc1ccccc1)Cc1ccc(Oc2ccc(OCC(=O)N(C)CC(=O)O)cc2)cc1` [Example 272, N-[(4-{4-[(benzyl{2-methyl-3-[(methylsulfonyl)amino]phenyl}amino)methyl]phenoxy}phenoxy)acetyl]-N-methylglycine]: the inhibition at 1.7 µM came out at 90.2%. On to `Cc1c(NS(C)(=O)=O)cccc1N(Cc1ccccc1)Cc1ccc(Oc2ccc(OCC(=O)N[C@H](C(=O)O)C(C)C)cc2)cc1` [Example 273, N-[(4-{4-[(benzyl{2-methyl-3-[(methylsulfonyl)amino]phenyl}amino)methyl]phenoxy}phenoxy)acetyl]-L-valine], for which the inhibition at 1.7 µM worked out at 91.2%. Regarding `Cc1c(NS(C)(=O)=O)cccc1N(Cc1ccccc1)Cc1ccc(Oc2ccc(OCC(=O)NC3CCOC3=O)cc2)cc1` (stereo not shown) [Example 274, 2-(4-{4-[(benzyl{2-methyl-3-[(methylsulfonyl)amino]phenyl}amino)methyl]phenoxy}phenoxy)-N-(2-oxotetrahydrofuran-3-yl)acetamide], the inhibition at 1.7 µM was found to be 89.9%.

Take `Cc1c(NS(C)(=O)=O)cccc1N(Cc1ccccc1)Cc1ccc(Oc2ccc(OCC(=O)N[C@@H](CO)C(=O)O)cc2)cc1` [Example 275, N-[(4-{4-[(benzyl{2-methyl-3-[(methylsulfonyl)amino]phenyl}amino)methyl]phenoxy}phenoxy)acetyl]-L-serine]: the inhibition at 1.7 µM is 90.5%. Under `Cc1c(NS(C)(=O)=O)cccc1N(Cc1ccccc1)Cc1ccc(Oc2ccc(OCC(=O)N[C@@H](CC(N)=O)C(=O)O)cc2)cc1` [Example 276, N˜2˜-[(4-{4-[(benzyl{2-methyl-3-[(methylsulfonyl)amino]phenyl}amino)methyl]phenoxy}phenoxy)acetyl]-L-asparagine] stands 89.2%. Consider `Cc1c(NS(C)(=O)=O)cccc1N(Cc1ccccc1)Cc1ccc(Oc2ccc(OCC(=O)NN)cc2)cc1` [Example 277, N-[3-(benzyl{4-[4-(2-hydrazino-2-oxoethoxy)phenoxy]benzyl}amino)-2-methylphenyl]methanesulfonamide], for which the inhibition at 1.7 µM is 90.6%.

On to `Cc1c(NS(C)(=O)=O)cccc1N(Cc1ccccc1)Cc1ccc(Oc2cccc(OC[C@@H]3CCC(=O)N3)c2)cc1` [Example 278, N-(3-{benzyl[4-(3-{[(2S)-5-oxopyrrolidin-2-yl]methoxy}phenoxy)benzyl]amino}-2-methylphenyl)methanesulfonamide], for which the inhibition at 1.7 µM was 90.1%. Then `Cc1c(NS(C)(=O)=O)cccc1N(Cc1ccccc1)Cc1ccc(Oc2cccc(OCCCC(=O)N3CCCC(C(=O)O)C3)c2)cc1` (stereo not shown) [Example 279, 1-[4-(3-{4-[(benzyl{2-methyl-3-[(methylsulfonyl)amino]phenyl}amino)methyl]phenoxy}phenoxy)butanoyl]piperidine-3-carboxylic acid], with 91.7%; and `Cc1c(NS(C)(=O)=O)cccc1N(Cc1ccccc1)Cc1ccc(Oc2cccc(OCCCC(=O)N3CCC(C(=O)O)CC3)c2)cc1` [Example 280, 1-[4-(3-{4-[(benzyl{2-methyl-3-[(methylsulfonyl)amino]phenyl}amino)methyl]phenoxy}phenoxy)butanoyl]piperidine-4-carboxylic acid], with 89.5%; and `Cc1c(NS(C)(=O)=O)cccc1N(Cc1ccccc1)Cc1ccc(Oc2cccc(OCCCC(=O)N3CCCCC3C(=O)O)c2)cc1` (stereo not shown) [Example 281, 1-[4-(3-{4-[(benzyl{2-methyl-3-[(methylsulfonyl)amino]phenyl}amino)methyl]phenoxy}phenoxy)butanoyl]piperidine-2-carboxylic acid], with 90%.

`Cc1c(NS(C)(=O)=O)cccc1N(Cc1ccccc1)Cc1ccc(Oc2cccc(OCCCC(=O)N3CCC[C@H]3C(=O)O)c2)cc1` [Example 282, 1-[4-(3-{4-[(benzyl{2-methyl-3-[(methylsulfonyl)amino]phenyl}amino)methyl]phenoxy}phenoxy)butanoyl]proline]: the inhibition at 1.7 µM amounted to 89.9%.

For `Cc1c(NS(C)(=O)=O)cccc1N(Cc1ccccc1)Cc1ccc(Oc2cccc(OCC3(C)COC3)c2)cc1` [Example 283, N-{3-[benzyl(4-{3-[(3-methyloxetan-3-yl)methoxy]phenoxy}benzyl)amino]-2-methylphenyl}methanesulfonamide], the inhibition at 1.7 µM amounted to 89.7%. Then `Cc1c(NS(C)(=O)=O)cccc1N(Cc1ccccc1)Cc1ccc(Oc2cccc(OCC3CC3C(=O)O)c2)cc1` (stereo not shown) [Example 284, 2-[(3-{4-[(benzyl{2-methyl-3-[(methylsulfonyl)amino]phenyl}amino)methyl]phenoxy}phenoxy)methyl]cyclopropanecarboxylic acid], with 89.6%; and `Cc1c(NS(C)(=O)=O)cccc1N(Cc1ccccc1)Cc1ccc(Oc2cccc(OC[C@H](O)CO)c2)cc1` [Example 285, N-(3-{benzyl[4-(3-{[(2R)-2,3-dihydroxypropyl]oxy}phenoxy)benzyl]amino}-2-methylphenyl)methanesulfonamide], with 89.7%; and `Cc1c(NS(C)(=O)=O)cccc1N(Cc1ccccc1)Cc1ccc(Oc2cccc(OC3CCC(C(=O)O)CC3)c2)cc1` (stereo not shown) [Example 286, 4-(3-{4-[(benzyl{2-methyl-3-[(methylsulfonyl)amino]phenyl}amino)methyl]phenoxy}phenoxy)cyclohexanecarboxylic acid], with 92.6%. Then `Cc1c(NS(C)(=O)=O)cccc1N(Cc1ccccc1)Cc1ccc(Oc2cccc(OC3CCOCC3)c2)cc1` [Example 287, N-[3-(benzyl{4-[3-(tetrahydro-2H-pyran-4-yloxy)phenoxy]benzyl}amino)-2-methylphenyl]methanesulfonamide], with 89.2%; and `Cc1c(NS(C)(=O)=O)cccc1N(Cc1ccccc1)Cc1ccc(Oc2cccc(OC3CCOC3)c2)cc1` (stereo not shown) [Example 288, N-[3-(benzyl{4-[3-(tetrahydrofuran-3-yloxy)phenoxy]benzyl}amino)-2-methylphenyl]methanesulfonamide], with 89.8%; and `Cc1c(NS(C)(=O)=O)cccc1N(Cc1ccccc1)Cc1ccc(Oc2cccc(OC[C@@H]3CCCN3C)c2)cc1` [Example 289, N-(3-{benzyl[4-(3-{[(2S)-1-methylpyrrolidin-2-yl]methoxy}phenoxy)benzyl]amino}-2-methylphenyl)methanesulfonamide], with 87.8%. Under `Cc1c(NS(C)(=O)=O)cccc1N(Cc1ccccc1)Cc1ccc(Oc2cccc(OCc3cccnc3)c2)cc1` [Example 290, N-[3-(benzyl{4-[3-(pyridin-3-ylmethoxy)phenoxy]benzyl}amino)-2-methylphenyl]methanesulfonamide] stands 89.1%. `Cc1c(NS(C)(=O)=O)cccc1N(Cc1ccccc1)Cc1ccc(Oc2cccc(OC[C@@H]3CCCN3)c2)cc1` [Example 291, N-{3-[benzyl(4-{3-[(2S)-pyrrolidin-2-ylmethoxy]phenoxy}benzyl)amino]-2-methylphenyl}methanesulfonamide]: the inhibition at 1.7 µM is 87.7%. For `Cc1c(NS(C)(=O)=O)cccc1N(Cc1ccccc1)Cc1ccc(Oc2cccc(OC3CCN(C)C3)c2)cc1` (stereo not shown) [Example 292, N-{3-[benzyl(4-{3-[(1-methylpyrrolidin-3-yl)oxy]phenoxy}benzyl)amino]-2-methylphenyl}methanesulfonamide], the inhibition at 1.7 µM stood at 89.4%. On to `Cc1c(NS(C)(=O)=O)cccc1N(Cc1ccc(Oc2ccc(Cl)c(OCC(=O)O)c2)cc1)Cc1ccccc1F` [Example 306, (2-chloro-5-(4-(((2-fluorobenzyl)(2-methyl-3-((methylsulfonyl)amino)phenyl)amino)methyl)phenoxy)phenoxy)acetic acid], for which the inhibition at 1.7 µM stood at 97%. For `Cc1c(NS(C)(=O)=O)cccc1N(Cc1ccc(Oc2ccc(Cl)c(OCC(=O)O)c2)cc1)Cc1ccccc1Br` [Example 307, (5-(4-(((2-bromobenzyl)(2-methyl-3-((methylsulfonyl)amino)phenyl)amino)methyl)phenoxy)-2-chlorophenoxy)acetic acid], the inhibition at 1.7 µM worked out at 97%.
